Data set [1] deals with T1, 20S proteasome extracted from rat liver, chymotryptic-like (CT-L) activity (Rattus norvegicus, UniProt P18421+P28075).
T1 construct: 20S proteasome extracted from rat liver; from tissue; host or cells: rat liver
The data set can be described thus: Proteasome inhibition, chymotryptic-like (CT-L) activity, fluorescent peptide Suc-leu-leu-Val-Tyr-AMC. It counts as biochemical. To be noted: rat liver 20S proteasome, 37° C., 1 h. Summed up: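 Rat liver 20S proteasome (1 μg) incubated 1 h at 37° C with compounds and 50 μM Suc-Leu-Leu-Val-Tyr-AMC in 20 mM Tris-HCl.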

Data set [2] deals with T2, 20S proteasome extracted from rat liver, trypsin-like (TL) activity (Rattus norvegicus, UniProt P40112+Q9JHW0).
T2 construct: 20S proteasome extracted from rat liver; from tissue; host or cells: rat liver
Kind of data set: Proteasome inhibition, trypsin-like (TL) activity, fluorescent peptide Z-Ala-Arg-Arg-AMC. It counts as biochemical. To be noted: rat liver 20S proteasome, 37° C., 1 h; read-out: T-L (IC50). Summed up: (§1)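 Rat liver 20S proteasome (1 μg) incubated 1 h at 37 °C with compounds, 50 μM fluorogenic peptide and 20 mM Tris-HCl. AMC release read at 380/440 nm and βNA release at 335/410 nm. Inhibition rate calculated against a 0.1% DMSO solvent control.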

Data set [3] relates to BGC-823 human gastric cancer cell. The data set can be described thus: Preliminary anti-tumor screening in vitro, SRB method. The data set is classed as cell-based. To be noted: BGC-823, SRB. More on the design: key to Test results: +++: inhibition rates at three doses are greater than 50%; ++: inhibition rates at two doses are greater than 50%; +: inhibition rate at one dose is greater than 50%. An outline of the steps: (§2)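 In vitro cytotoxicity by routine methods: MTT read-out for HL-60 cells, SRB read-out for BGC-823, Bel-7402 and KB cells.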
(In SRB staining, fixed cells bind dye roughly in proportion to their protein.)

Data set [4] relates to Bel-7402 human hepatocarcinoma cell. The description is as above. It counts as cell-based. Set-up: key to Test results: +++: inhibition rates at three doses are greater than 50%; ++: inhibition rates at two doses are greater than 50%; +: inhibition rate at one dose is greater than 50%. Conditions: Bel-7402, SRB. Summed up: as §2
The test system of data set [5] is KB human nasopharyngeal carcinoma cell. The description is as above. The data set is classed as cell-based. Set-up: key to Test results: +++: inhibition rates at three doses are greater than 50%; ++: inhibition rates at two doses are greater than 50%; +: inhibition rate at one dose is greater than 50%. An outline of the steps: as §2
In data set [6] the target is T3, 20S proteasome extracted from rat liver, peptidyl-glutamyl-peptide-hydrolyzing (PGPH) enzyme activity (Rattus norvegicus, UniProt P28073+Q9JHW0).
T3 construct: 20S proteasome extracted from rat liver; from tissue; host or cells: rat liver
The data set can be described thus: Proteasome inhibition, PGPH activity, fluorescent peptide Z-leu-leu-Glu-βNA. To be noted: rat liver 20S proteasome, 37° C., 1 h. It counts as biochemical. An outline of the steps: as §1

Data set [7] has as its system HL-60 human leukemia cell. Kind of data set: Preliminary anti-tumor screening in vitro, MTT method. The data set is classed as cell-based. More on the design: key to Test results: +++: inhibition rates at three doses are greater than 50%; ++: inhibition rates at two doses are greater than 50%; +: inhibition rate at one dose is greater than 50%. To be noted: HL-60, MTT. Summed up:
as §2
For orientation: Tetrazolium assays rely on reduction of a dye to a coloured formazan, in cell work by metabolically active cells.

Data set [8] concerns HL-60 (promyelocytic leukemia cell strain). Kind of data set: In vitro anti-tumor activity (IC50), standard MTT method. It counts as cell-based. To be noted: Homo sapiens, 72 h, average of three determinations. How it is done: (§3) HL-60, BXPC-3 and U266 were obtained from the American Type Culture Collection (Manassas, Va.), and BGC-823 (human gastric carcinoma cell strain) was obtained from China Pharmaceutical University.
(§4) Test methods: HL-60 cells were cultured in IMDM medium containing 20% fetal bovine serum at 37° C. in 5% CO2; BGC-823 cells and BXPC-3 cells were cultured in RPMI1640 medium containing 10% fetal bovine serum at 37° C. in 5% CO2; U266 cells were cultured in RPMI1640 medium containing 15% fetal bovine serum at 37° C. in 5% CO2.
(§5) The cell growth was measured by the standard MTT method. A dispersions (150 μL, containing 3000 cells) medium was added into each well of a 96-well plate and allowed to grow, after 24 h, ten kinds of medium (50 μL) containing different concentrations of drugs were added into the corresponding wells, and continued to incubate for 72 h. Then a solution containing 5 mg/ml MTT (20 μL) was added into each well and incubated for another 4 h at 37° C. The plate was then centrifugated at 1000 rpm at 4° C. for 5 min, and the medium in upper layer was carefully discarded. The precipitates were dissolved in 100 μL of DMSO, and absorbance was read with an Infinite M200 (Tecan, Austria) microplate reader at 540 nm.
(§6) The result was expressed as IC50 value, which is the average value of three independent determinations.

In data set [9] the test system is BXPC-3 (human pancreatic cancer cell strain). The data set is described as above. It counts as cell-based. To be noted: 72 h, average of three determinations. The protocol:
as §3, §4, §5, §6

Data set [10] concerns U266 (multiple myeloma cell strain). The data set is described as above. The data set is classed as cell-based. Conditions: Homo sapiens, U-266, 72 h, average of three determinations. The protocol:
as §3, §4, §5, §6

The test system of data set [11] is BGC-823 (human gastric carcinoma cell strain). The description is as above. It counts as cell-based. To be noted: 72 h, average of three determinations. How it is done: as §3, §4, §5, §6
Where [12] appears, read: number of doses with inhibition > 50%.
[13] abbreviates: Homo sapiens, 0.05 μM, read-out: Inhibition rate %.
Where [14] appears, read: Homo sapiens, 0.5 μM, read-out: Inhibition rate %.
The mark [15] stands for this setting: Homo sapiens, 5 μM, read-out: Inhibition rate %.

As usually defined, the IC50 is the concentration at which inhibition is half-maximal. As usually defined, the inhibition is the relative decrease from the control value, in per cent. By melting point is commonly meant the temperature, or range, at which the solid turns liquid.

`CC(C)C[C@H](NC(=O)[C@H](Cc1ccccc1)NC(=O)[C@H](Cc1ccc2ccccc2c1)NC(=O)c1cnccn1)B(O)O` [Compound 6b, N-pyrazineformyl-L-naphthylalanyl-L-phenylalanyl-L-leucine Boronic Acid] returned a melting point of 134 to 135 °C. This compound also had an IC50 in [1] of 0.417 ± 0.07 nM. For the same compound, the IC50 in data set [2] is above 20 nM. Also, the Test results in [3] (setting [12]) is on record as “+++”. Also, in [3] (setting [13]), the inhibition at 0.05 µM turned out to be 56.4%. Also, the inhibition at 0.5 µM in data set [3] (setting [14]) was determined as 93.7%. The inhibition at 5 µM in [3] (setting [15]) turned out to be 96.7%. In addition, the Test results in data set [4] (setting [12]) is “+”. Moreover, the inhibition at 0.05 µM in [4] (setting [13]) came out at 22.9%. Also, the inhibition at 0.5 µM in [4] (setting [14]) was found to be 56.1%. In data set [4] (setting [15]), the inhibition at 5 µM is 91.6%. For the same compound, the inhibition at 0.05 µM in data set [5] (setting [13]) is 23.3%. Moreover, the inhibition at 0.5 µM in data set [5] (setting [14]) was 91.5%. In [5] (setting [15]), the inhibition at 5 µM was 96.6%. Moreover, the Test results in [5] (setting [12]) is “++”. The same compound returned an IC50 in data set [6] of 4.43 ± 1.41 nM. Moreover, in data set [7] (setting [12]), the Test results is reported as “++”. Moreover, the inhibition at 0.05 µM in data set [7] (setting [13]) turned out to be 3.58%. The inhibition at 0.5 µM in data set [7] (setting [14]) is 87.3%. In data set [7] (setting [15]), the inhibition at 5 µM came to 88.9%. This compound registered an IC50 in [8] of 10 nM. In data set [9], this compound registered a concentration for half-maximal inhibition (IC50) of 31.8 nM. The same compound gave an IC50 in data set [10] of 53 nM. Also, the IC50 in data set [11] turned out to be 2810 nM.

These data come from patent US9421237B2, “Tripeptide boronic acid or boronic ester, preparative method and use thereof” (PEKING UNIVERSITY, priority 2009, dated 2016).
